The values below come from patent publication US20250163057A1, “DCN-1 MODULATING COMPOUNDS AND METHODS OF USE THEREOF” (Cellarity, Inc., priority 2023, published 2025).

For data set [1], the system named is HbF in GlyA+ human erythroid precursor cells. Briefly: Humanized mouse model: F-cells (GlyA+ cells with detectable HbF) by flow cytometry. The conditions noted are these: FIG. 10A, all treatment groups. The data set is classed as in vivo, NBSGW mice reconstituted with human CD34+ cells. The procedure: FIG. 5 is FACS results showing the percentage of GlyA+ cells which also have detectable HbF protein levels in them (called F-cells).
(§1) Female, 6-week-old NOD.Cg-Kit^W-41J Tyr^+ Prkdc^scid Il2rg^tm1Wjl/ThomJ (NBSGW) mice (Jackson Laboratory strain #[…]) were used for these studies. The mice were acclimatized to laboratory conditions for 5 days prior to inoculation.
GCSF-mobilized human CD34+ cells were removed from liquid nitrogen storage, thawed in a 37° C. water bath and transferred quickly into a 50 mL conical tube. Cryovial was rinsed once with thaw buffer, 0.1% BSA in phosphate buffered saline (PBS), and buffer was transferred and combined with the original contents in the 50 mL conical tube. Next, doubling volumes of thaw buffer was added to the conical and gently swirled for ˜30 seconds to one minute until the volume in the conical was 32 mL. […] Cells were counted by resuspending in 1 mL of thawing buffer per million of cells to a target concentration range of 0.5 to 2M/ml and counting with AOPI (1:1) on a luna cell counter to confirm the concentration of cells/mL. […]
Compound I-73 was dissolved in a 5% Cremophor RH40, 20% hydroxylpropyl-β-cyclodextrin solution. […] Mice were monitored daily for body weight and condition. […]
After 21 days of dosing, all mice were euthanized and prepared for bone marrow collection. […] Extracted cells were counted and aliquoted to prepare for analysis. […]
Background: A flow cytometer gives signals particle by particle.

Data set [2] is described as follows: Preliminary pharmacokinetic studies (serum exposure). The data set is classed as in vivo, wild-type mice.
In data set [3] the test system is fetal hemoglobin gene expression (HBG1) in human erythroid progenitor cells. In words: Humanized mouse model: fetal hemoglobin mRNA (HBG1, HBB) in bone marrow by Nanostring. Conditions: for HBG1 expression compared to vehicle (HBG1 alone or HBG1 to total beta hemoglobin mRNA): FIGS. 11A-11C, various doses and treatment regimes. The data set is classed as in vivo, NBSGW mice reconstituted with human CD34+ cells.
Excerpt: (§2) Results: To evaluate induction of target cell activity in the bone marrow, a humanized mouse model was developed. This model entails the reconstitution of human hematopoietic progenitor cells within the bone marrow of immunodeficient nonirradiated NOD.Cg-KitW-41J Tyr^+ Prkdc^scid Il2rg^tmlwjl/ThomJ (NBSGW) strain recipient mice. These mice are competent to engraft and differentiate human erythroid progenitor cells that express human adult hemoglobin mRNA and protein subunits within bone marrow.
(§3) Based on these exposure results, humanized mice were treated with either the clinical standard of care compound, hydroxyurea (50 mg/kg; bid), or I-73, at 25 and 100 mg/kg (bid), by oral gavage over a three-week period. At the end of the treatment period, bone marrow was harvested for flow cytometry, as well as for assessment of HbF protein and fetal hemoglobin (HBG1) mRNA levels. Levels of both HbF protein and HBG1 mRNA were normalized to the percentage of human erythroid progenitor cells in the bone marrow of each mouse as determined by immunofluorescence staining for human Glycophorin A cell membrane expression. […] In addition, relative levels of fetal hemoglobin to those of potentially sickling-prone adult hemoglobin (HBB) was assessed.
as §1
(§4) GCSF-mobilized human CD34+ cells were removed from liquid nitrogen storage, thawed in a 37° C. water bath and transferred quickly into a 50 mL conical tube. Cryovial was rinsed once with thaw buffer, 0.1% BSA in phosphate buffered saline (PBS), and buffer was transferred and combined with the original contents in the 50 mL conical tube. Next, doubling volumes of thaw buffer was added to the conical and gently swirled for ˜30 seconds to one minute until the volume in the conical was 32 mL. Cells and buffer were centrifuged at 300G for 8 minutes, and the supernatants were aspirated. Cells were counted by resuspending in 1 mL of thawing buffer per million of cells to a target concentration range of 0.5 to 2M/ml and counting with AOPI (1:1) on a luna cell counter to confirm the concentration of cells/mL. The cell concentration was adjusted to 3×10^6 cells/ml. For each mouse, 300 thousand cells in 0.1 ml were injected into the tail vein with a 25-gauge needle.
(§5) On day 56 after human cell adoptive transfer, whole blood was collected from each mouse by submandibular bleed and a 100 μL sample of EDTA whole blood was transferred to a 2 ml tube containing 1.8 mL ACK Lysing Buffer at room temperature (RT), and then inverted to mix. Samples were incubated at RT for 15 min in the dark to lyse. After lysis, samples are centrifuged at 500×g for 5 minutes at RT to enable supernatant decanting. Remaining cells were washed with 1 mL of PBS-0.5% BSA and centrifuged at 500×g for 5 minutes at 4° C. Supernatant was decanted and cells were stained with leukocyte markers (human and mouse CD45 antibodies; BD347464, BD557659) to confirm human cell engraftment. Mice having less than one percent, or greater than ten percent, human CD45 positive cells were excluded from the subsequent study. Remaining mice were then randomized into treatment groups based on percentage of human cell engraftment. Each treatment group included 10-11 mice.
(§6) Compound I-73 was dissolved in a 5% Cremophor RH40, 20% hydroxylpropyl-β-cyclodextrin solution. Hydroxyurea was solubilized in PBS. Formulations were prepared fresh daily. Commencing on day 84 post human cell engraftment, mice were treated by oral gavage with either I-73, hydroxyurea or their respective vehicles, for a period of three weeks using either once daily (QD) or twice daily (BID) dosing regimens. Mice were monitored daily for body weight and condition. […]

The subject of data set [4] is fetal hemoglobin protein (HbF) in human erythroid progenitor cells. In words: Humanized mouse model: HbF protein in bone marrow by AlphaLISA. The class given is in vivo, NBSGW mice reconstituted with human CD34+ cells. The conditions noted are these: for HbF protein levels (AlphaLISA) normalized for % GlyA+ cells: FIG. 10B, most treatment groups.
Excerpt: as §2, §3, §1, §4, §5, §6
(In general: Bead proximity is the source of the signal in Alpha formats.)

Where [5] appears, read: humanized mouse model, human erythroid progenitor cells, dose not given at this place.

Take `CCN1C(=O)[C@@H](NC(=O)c2cccc(C(F)(F)F)c2)[C@@H](c2ccc(F)cc2)c2c([C@@H](C)NC#N)nn(-c3ccccc3)c21` [Compound I-73, N-((4S,5S)-3-((R)-1-cyanamidoethyl)-7-ethyl-4-(4-fluorophenyl)-6-oxo-1-phenyl-4,5,6,7-tetrahydro-1H-pyrazolo[3,4-b]pyridin-5-yl)-3-(trifluoromethyl)benzamide]: the “percentage of HbF expression in GlyA+ cells (F-cell analysis)” value in data set [1] is listed as “increased percentage of HbF expression in GlyA+ cells”. Further, the “serum concentrations relative to that required to inhibit DCN-1” value in data set [2] (dosing at 25 and 100 mg/kg) is recorded as “equivalent to or greater than that required to inhibit DCN-1”. Further, in data set [2] (wild-type mice), the “in vivo serum exposure levels” value is reported as “predicted to be sufficient for fetal hemoglobin induction”. The “HBG1 mRNA transcript levels (Nanostring)” value in data set [3] (25 and 100 mg/kg bid, oral gavage, three weeks (FIG. 1B)) was “enhanced transcript levels”. Also, the “ratios of HBG1 to HBB mRNA compared with hydroxyurea (50 mg/kg bid)” value in data set [3] (25 and 100 mg/kg bid, oral gavage, three weeks (FIG. 1C)) is “significantly greater ratios”. In addition, the “HBG1 expression compared to vehicle (HBG1 alone or HBG1 to total beta hemoglobin mRNA)” value in data set [3] is “increased HBG1 expression compared to vehicle”. Further, in data set [3] (setting [5]), the “induction of fetal hemoglobin mRNA (HBG1)” value is “an induction of both HBG1 mRNA and HbF protein was observed”. In addition, the “ratio of fetal HBG1 hemoglobin mRNA to adult hemoglobin mRNA (HBB), compared with HU” value in data set [3] (humanized mouse model, dose not given at this place) is listed as “significantly greater than HU standard of care”. In data set [4] (25 and 100 mg/kg bid, oral gavage, three weeks, normalized to % GlyA+ cells (FIG. 1A)), the “HbF protein levels in bone marrow (AlphaLISA) compared to vehicle-treated mice” value is given as “significantly increases”. For the same compound, the “HbF protein levels (AlphaLISA) normalized for % GlyA+ cells” value in data set [4] is on record as “increased HbF protein levels”. Also, in data set [4] (bid, oral gavage, three weeks), the “difference in HbF protein levels between the 25 and the 100 mg/kg doses” value is given as “no significant difference”. Further, the “induction of fetal hemoglobin protein (HbF)” value in data set [4] (setting [5]) is “an induction of both HBG1 mRNA and HbF protein was observed”.
In the case of `CCN1C(=O)[C@@H](NC(=O)c2cccc(C(F)(F)F)c2)[C@@H](C2CC2)c2c(C(=O)N3[C@H](C#N)C[C@H]4C[C@H]43)nn(C3CCOCC3)c21` [Compound I-256, N-((4S,5S)-3-((1R,3S,5R)-3-cyano-2-azabicyclo[3.1.0]hexane-2-carbonyl)-4-cyclopropyl-7-ethyl-6-oxo-1-(tetrahydro-2H-pyran-4-yl)-4,5,6,7-tetrahydro-1H-pyrazolo[3,4-b]pyridin-5-yl)-3-(trifluoromethyl)benzamide], the “percentage of HbF expression in GlyA+ cells (F-cell analysis)” value in data set [1] is recorded as “increased percentage of HbF expression in GlyA+ cells”. Further, in data set [3], the “HBG1 expression compared to vehicle (HBG1 alone or HBG1 to total beta hemoglobin mRNA)” value was “increased HBG1 expression compared to vehicle”. Further, the “HbF protein levels (AlphaLISA) normalized for % GlyA+ cells” value in data set [4] was “increased HbF protein levels”.
